Laboratory results reported in publication PMC13303826, “Nicotinonitrile based dual inhibitors of tubulin and topoisomerase II exhibit potent anticancer activity” (Scientific Reports, 2026).
Where two headings read alike, the source gives them in different places.

Legend:
HeLa = conditions: Fig. 1, cited from earlier work
HL-60 = system: HL-60; parameters: method as in ref 4, 12 (YCH337), ref 13-15 (VIII); conditions: Fig. 1; 12 (YCH337), ref 13-15 (VIII); cited from earlier work
MCF-7 = system: MCF-7; parameters: method as in ref 8 (podophyllotoxin), ref 13-15 (VIII); conditions: Fig. 1; ref 8 (podophyllotoxin), ref 13-15 (VIII); cited from earlier work
MCF7 cells [1] = test: LDH release cytotoxicity assay, MCF7; format: cell-based; conditions: Homo sapiens, 48 h, mean ± SD, read-out: In vitro cytotoxicity IC50 µM ± SD, MCF7
Experimental: (§1) HepG2 (Human liver carcinoma), HCT116 (human colorectal carcinoma), MCF7 (human breast adenocarcinoma), and the normal human skin fibroblast (BJ-1) cell lines were purchased from the american type culture collection (Rockville, MD, USA) and maintained in RPMI-1640 medium which was supplemented with 10% heat-inactivated FBS, 100U/ml penicillin and 100U/ml streptomycin. The cells were grown at 37 °C in a humidified atmosphere of 5% CO2. All experiments were conducted thrice in triplicate (n = 3). All the values were represented as means ± SD. Significant differences between the means of parameters as well as IC50s were determined by probit analysis using SPSS software program (SPSS Inc., Chicago, IL).
(§2) To determine the effect of each synthesized compound on membrane permeability in HepG2, MCF-7 and HCT116 cancer cell lines as well as BJ-1 normal cell line, a lactate dehydrogenase (LDH) release assay was used[29]–[33]. The cells were seeded in 24-well culture plates at a density of 1 × 10^4 cells/well in 500 µL volume and allowed to grow for 18 h before treatment. After treatment with a series of different concentrations of each compound or DOX (positive control), the plates were incubated for 48 h. Then, the supernatant (40 µL) was transferred to a new 96 well to determine LDH release and 6% triton X-100 (40 µL) was added to the original plate for determination of total LDH. An aliquot of 0.1 M potassium phosphate buffer (100 µL, pH 7.5) containing 4.6 mM pyruvic acid was mixed to the supernatant using repeated pipetting. Then, 0.1 M potassium phosphate buffer (100 µL, pH 7.5) containing 0.4 mg/mL reduced β-NADH was added to the wells. The kinetic changes were read for 1 min using ELISA microplate reader in absorbance at wavelength 340 nm. This procedure was repeated with 40 µL of the total cell lysate to determine total LDH. The percentage of LDH release was determined by dividing the LDH released into the media by the total LDH following cell lysis in the same well. The cell Passage numbers for MCF 7 = P13, Hep G2 = P15, HCT 116 = P 9.
(§3) All experiments were conducted in triplicate (n = 3). All the values were represented as mean ± SD. Significant differences between the means of parameters as well as IC50s were determined by probit analysis using SPSS software program (SPSS Inc., Chicago, IL).

MCF7 cells [2] = test: Apoptosis and necrosis analysis by annexin V-FITC/PI staining; format: cell-based, human; conditions: at IC50 (2.4 µM), 48 h
Excerpt: Annexin V apoptosis detection kit is used for analyzing apoptosis and necrosis for active compounds 20 and 26 in MCF7 cells using annexin V-FITC/PI dual staining followed by flow cytometry quantification and fluorescence microscopy detection.
Detection is based on the observation that soon after initiating apoptosis, cells translocate the membrane phosphatidylserine (PS) from the inner face of the plasma membrane to the cell surface. Once on the cell surface, PS can be easily detected by staining with a fluorescent conjugate of annexin V, a protein that has a high affinity for PS. Detection can be analyzed by flow cytometry or/and by fluorescence microscopy. The kit can differentiate between apoptosis and necrosis when performing both annexin V-FITC and PI staining. Assay is summarized as first, induce apoptosis by desired method, collect 1–5 × 10^5 cells by centrifugation, resuspend cells in 500 µl of 1× binding buffer, add 5 µl of annexin V-FITC and 5 µl of propidium iodide and finally incubate at room temperature for 5 min in the dark. After that, analyze annexin V-FITC binding by flow cytometry (Ex = 488 nm; Em = 530 nm) using FITC signal detector (usually FL1) and PI staining by the phycoerythrin emission signal detector (usually FL2) then, observe the cells under a fluorescence microscope using a dual filter set for FITC & rhodamine. Cells that have bound annexin V-FITC will show green staining in the plasma membrane. Cells that have lost membrane integrity will show red staining (PI) throughout the nucleus and a halo of green staining (FITC) on the cell surface.

MCF7 cells [3] = test: Propidium iodide flow cytometry cell cycle analysis; format: cell-based, human; conditions: compound at 2.4 µM
Experimental: Propidium iodide flow cytometry kit (ab139418) is designed for quantitative DNA content analysis in tissue culture cells, so we performed propidium iodide cell cycle analysis for active compounds 20 and 26 using MCF-7 cell line. Propidium iodide staining of DNA is the classic means of cell cycle analysis. The staining procedure takes less than 1 h of total processing time and cells fixed in ethanol are stable for at least several weeks at 4 °C.
Propidium iodide is a fluorescent molecule that binds nucleic acid with little or no sequence preference. Because propidium iodide binds RNA as well as DNA, RNaseA (ribonuclease A) is included in this kit to digest cellular RNA and thus decrease background RNA staining from the experiment. Since propidium iodide is membrane impermeant, ethanol is used to both fix and permeabilize cells. A flow cytometer is required for quantitative analysis. First, fix MCF-7 cells in 66% ethanol, store at + 4 °C for 2 h to 4 weeks and rehydrate cells in PBS. Finally, stain cells with propidium iodide then add RNase for 30 min. Collect propidium iodide fluorescence intensity on FL2 of a flow cytometer and […] laser excitation. A useful way to display propidium iodide data is on a histogram with the cell count on the y-axis and the propidium iodide fluorescence intensity on the x-axis.

beta-tubulin = test: Inhibition of tubulin polymerization in MCF-7 cells (beta-tubulin SimpleStep ELISA); format: cell-based, human; conditions: MCF7 cells, concentration not given
Excerpt: Beta-tubulin in vitro simple step ELISA® (Enzyme-Linked Immunosorbent Assay) kit is designed for quantitative measurement of beta-tubulin protein in human cell and tissue homogenate extract samples.
The SimpleStep ELISA® employs an affinity tag labeled capture antibody and a reporter conjugated detector antibody which immunocapture the sample analyte in solution. This entire complex (capture antibody/analyte/detector antibody) is in turn immobilized via immunoaffinity of an anti-tag antibody coating the well. To perform the assay, samples or standards are added to the wells, followed by the antibody mix. After incubation, the wells are washed to remove unbound material. TMB development solution is added and during incubation is catalyzed by horseradish peroxidase (HRP), generating blue coloration. This reaction is then stopped by addition of stop solution completing any color change from blue to yellow. Signal is generated proportionally to the amount of bound analyte and the intensity is measured at 450 nm. Optionally, instead of the endpoint reading, development of TMB can be recorded kinetically at 600 nm. The concentration of beta-tubulin protein in the samples is determined by comparing the optical density (OD) of the samples to the standard curve. Each experiment was repeated two times (Table 2).

HCT116 cells = test: LDH release cytotoxicity assay, HCT116; format: cell-based; conditions: Homo sapiens, HCT-116, 48 h, mean ± SD, read-out: In vitro cytotoxicity IC50 µM ± SD, HCT116
Experimental: as §1, §2, §3

HepG2 cells = test: LDH release cytotoxicity assay, HepG2; format: cell-based; conditions: Homo sapiens, 48 h, mean ± SD, read-out: In vitro cytotoxicity IC50 µM ± SD, HepG2
Experimental: as §1, §2, §3

Topo II = test: Inhibition of topoisomerase II in MCF-7 cells (TOP2B sandwich ELISA); format: cell-based, human; conditions: MCF7 cells, concentration not given
Experimental: Mouse TOP2B/Topoisomerase II Beta ELISAKit (Sandwich ELISA) is designed for the quantitative measurement of Topo II enzyme.
This assay is based on the sandwich ELISA principle. Each well of the supplied microtiter plate has been pre-coated with a target specific capture antibody. Standards or samples are added to the wells, and the target antigen binds to the capture antibody. Unbound standard or sample is washed away. A biotin-conjugated detection antibody is then added which binds to the captured antigen. Unbound detection antibody is washed away. An avidin-horseradish peroxidase (HRP) conjugate is then added which binds to the biotin. Unbound avidin-HRP conjugate is washed away. A TMB substrate is then added which reacts with the HRP enzyme resulting in color development. A sulfuric acid stop solution is added to terminate color development reaction and then the optical density (OD) of the well is measured at a wavelength of 450 nm ± 2 nm. An OD standard curve is generated using known antigen concentrations; the OD of an unknown sample can then be compared to the standard curve to determine its antigen concentration. Each experiment was repeated two times (Table 3).

BJ1 normal cells = test: LDH release cytotoxicity assay, normal skin fibroblasts BJ1; format: cell-based, human; conditions: non-tumor BJ1 fibroblasts
Experimental: as §1, §2, §3

NCI = system: NCI; parameters: method as in PMID 8392342; conditions: Fig. 1B; cited from earlier work
HepG2 = system: HepG2; parameters: method as in PMID 31278032; conditions: Fig. 1A; cited from earlier work
MDA-MB-231 = system: MDA-MB-231; parameters: method as in ref 5, 7 (CA-4), ref 13-15 (VII); conditions: Fig. 1; 7 (CA-4), ref 13-15 (VII); cited from earlier work
colon-26 = system: colon-26; parameters: method as in PMID 24669888, PMID 30111667, PMID 9873694; conditions: Fig. 1C; cited from earlier work
A549 = system: A549; parameters: method as in PMID 33465263; conditions: Fig. 1A; cited from earlier work
HT-29 = system: HT-29; parameters: method as in PMID 25840421, PMID 39533473; conditions: Fig. 1B; cited from earlier work
[4] = ref 10 (etoposide), 12 (YCH337)

## COc1ccc(O)c(C(=O)c2cnc3[nH]c4ccccc4c3c2)c1 [YCH337]
HeLa; [4]
  IC50: 60 nM
HL-60
  IC50: 210 nM

## COc1ccc(-c2cc(-c3cc(OC)c(OC)c(OC)c3)c(C#N)c(=O)[nH]2)cc1 [VIII]
MCF-7
  IC50: 180 nM
HL-60
  IC50: 470 nM

## COc1ccc(-c2cc(-c3cc(OC)c(OC)c(OC)c3)c(C#N)c3nnnn23)cc1 [Compound 26, 5-(4-methoxyphenyl)-7-(3,4,5-trimethoxyphenyl)tetrazolo[1,5-a]pyridine-8-carbonitrile]
MCF7 cells [1]
  IC50: 2.4 ± 0.1 µM
MCF7 cells [2]
  Apoptosis Early: 7.58%
  Apoptosis Late: 28.16%
  Apoptosis Total: 41.26%
  Necrosis: 5.51%
MCF7 cells [3]
  %G0-G1: 35.64%
  %G2/M: 50.69%
  %S: 13.67%
beta-tubulin
  tubulin polymerization % inhibition: 75%
HCT116 cells
  IC50: 63.4 ± 5.3 µM
HepG2 cells
  IC50: 6.3 ± 0.3 µM
Topo II
  Topo II % inhibition: 43.7%
BJ1 normal cells
  Cytotoxicity / selectivity toward BJ1 normal cells (in words): good selectivity

## COc1ccc(-c2cc(-c3cc(OC)cc(OC)c3)c(C#N)c(N=P(c3ccccc3)(c3ccccc3)c3ccccc3)n2)cc1 [Compound 38, 4-(3,5-Dimethoxyphenyl)-6-(4-methoxyphenyl)-2-((triphenyl-λ^5-phosphaneylidene)amino)-nicotinonitrile]
MCF7 cells [1]
  IC50: 2.5 ± 0.1 µM
beta-tubulin
  tubulin polymerization % inhibition: 71.7%
HCT116 cells
  IC50: 31.5 ± 3.2 µM
HepG2 cells
  IC50: 12.2 ± 1.1 µM
BJ1 normal cells
  Cytotoxicity / selectivity toward BJ1 normal cells (in words): good selectivity

## COc1cc([C@@H]2c3[nH]c4ccccc4c3C[C@H]3COC(=O)N32)cc(OC)c1O [Azatoxin (NSC 640737), azatoxin]
NCI
  IC50: 130 nM

## COc1cc([C@@H]2c3cc4c(cc3[C@@H](O[C@@H]3O[C@@H]5CO[C@@H](C)O[C@H]5[C@H](O)[C@H]3O)[C@H]3COC(=O)[C@H]23)OCO4)cc(OC)c1O [Etoposide]
HepG2
  IC50: 10.5 µM
HeLa; [4]
  IC50: 12200 nM

## COc1cc(-c2cc(-c3cc(OC)c(OC)c(OC)c3)c(C#N)c(Cl)n2)cc(OC)c1OC [Compound 20, 2-Chloro-4,6-bis(3,4,5-trimethoxyphenyl)nicotinonitrile]
MCF7 cells [1]
  IC50: 2.4 ± 0.1 µM
MCF7 cells [2]
  Apoptosis Early: 11.91%
  Apoptosis Late: 22.63%
  Apoptosis Total: 38.41%
  Necrosis: 3.87%
MCF7 cells [3]
  %G0-G1: 39.69%
  %G2/M: 43.3%
  %S: 17.01%
beta-tubulin
  tubulin polymerization % inhibition: 74.7%
HCT116 cells
  IC50: 34.4 ± 3.2 µM
HepG2 cells
  IC50: 6.1 ± 0.5 µM
Topo II
  Topo II % inhibition: 70.3%
BJ1 normal cells
  Cytotoxicity / selectivity toward BJ1 normal cells (in words): good selectivity

## COc1ccc(-c2cccc(-c3ccc(OC)cc3OC)n2)cc1 [VII]
HeLa; 7 (CA-4), ref 13-15 (VII)
  IC50: 3.8 nM
MDA-MB-231
  IC50: 3.1 nM

## Cc1cc(-c2ccco2)c(C#N)c(N=P(c2ccccc2)(c2ccccc2)c2ccccc2)n1 [Compound 41, 4-(Furan-2-yl)-6-methyl-2-((triphenyl-λ^5-phosphaneylidene)amino)nicotinonitrile]
MCF7 cells [1]
  IC50: 2.4 ± 0.1 µM
beta-tubulin
  tubulin polymerization % inhibition: 61.2%
HCT116 cells
  IC50: 38.2 ± 2.8 µM
HepG2 cells
  IC50: 27.3 ± 2.3 µM
BJ1 normal cells
  Cytotoxicity / selectivity toward BJ1 normal cells (in words): good selectivity

## COc1ccc(-c2nnnn2-c2cc(OC)c(OC)c(OC)c2)cc1N [IX]
colon-26
  IC50: 7.2 nM

## COc1cc([C@@H]2c3cc4c(cc3[C@H](O)[C@H]3COC(=O)[C@H]23)OCO4)cc(OC)c1OC [Podophyllotoxin]
A549
  IC50: 1900 nM
MCF-7
  IC50: 2210 nM

## COC(=O)C1C(c2cc(OC)c(OC)c(OC)c2)c2cc3c(cc2C(n2cc(-c4ccc(F)cc4)nn2)C1C=O)OCO3 (stereo not shown) [VI]
HT-29
  IC50: 40 nM

## COc1ccc(/C=C\c2cc(OC)c(OC)c(OC)c2)cc1O [CA4, Combretastatin A4]
HeLa; 7 (CA-4), ref 13-15 (VII)
  IC50: 1 nM
MDA-MB-231
  IC50: 2.8 nM
beta-tubulin
  tubulin polymerization % inhibition: 72.1%
